{"source": "PubChem BioAssay AID493099", "about": "(Broad Institute, 2011)", "note": "Calls of active or inactive are those of the source. No rule for the calls is given here."}
{"test_system": "NIH-3T3 viability with fluconazole, Alamar Blue, 48 h", "assay": "PubChem AID 493099", "conditions": "not given"}
{"compound": "O=C(Cn1c2ccccc2c2nc3n(c(=O)c21)CCS3)N1CCCC1", "AC50": "19.7 µM"}
{"compound": "COc1ccc(NC(=O)Cn2c3ccccc3c3nc4n(c(=O)c32)CCS4)cc1", "AC50": "6.04 µM"}
{"compound": "Cc1ccc(N2CCN(C(=O)c3ccc(Cl)cc3)CC2)nc1", "AC50": "> 26 µM (inactive)"}
{"compound": "CCN(CC)C(=O)Cn1c2ccccc2c2nc3n(c(=O)c21)CCS3", "AC50": "> 26 µM (inactive)"}
{"compound": "O=C(Cn1nc(-c2ccccc2)c2cc(Cl)ccc21)N1CCOCC1", "AC50": "> 26 µM (inactive)"}
{"test_system": "not listed separately", "assay": "PubChem AID 493099", "conditions": "NIH-3T3 viability with fluconazole, Alamar Blue, 48 h; at 2.6 µM (top of the series)"}
{"compound": "COc1ccc2c(c1)c1nc3n(c(=O)c1n2CC(=O)N1CCC(C)CC1)CCS3", "activity change, negative = toxicity": "18.1% (inactive)"}
{"test_system": "not listed separately", "assay": "PubChem AID 493099", "conditions": "NIH-3T3 viability with fluconazole, Alamar Blue, 48 h; at 26 µM (top of the series)"}
{"compound": "O=C(O)Cn1nc(-c2ccccc2)c2ccccc21", "activity change, negative = toxicity": "-27.1% (inactive)"}
{"compound": "CCOC(=O)c1nn(Cc2ccc(Cl)cc2)c2ccccc12", "activity change, negative = toxicity": "-28.4% (inactive)"}
{"compound": "O=C(Cn1c2ccccc2c2nc3n(c(=O)c21)CCS3)N1CCCC1", "activity change, negative = toxicity": "-17.5% (inactive)"}
{"compound": "COC(=O)Cn1nc(C)c2ccccc21", "activity change, negative = toxicity": "-5.29% (inactive)"}
{"compound": "CC(C)C(=O)N1CCN(c2ccccn2)CC1", "activity change, negative = toxicity": "7.76% (inactive)"}
{"compound": "CCOC(=O)c1c2ccccc2nn1Cc1ccc(Cl)cc1", "activity change, negative = toxicity": "3.93% (inactive)"}
{"compound": "Cc1ccc(C(=O)N2CCN(c3ccccn3)CC2)cc1", "activity change, negative = toxicity": "5.98% (inactive)"}
{"compound": "COc1ccc(C(=O)N2CCN(c3ccccn3)CC2)cc1", "activity change, negative = toxicity": "-22.2% (inactive)"}
{"compound": "COc1ccc2c(c1)c1nc3n(c(=O)c1n2CC(=O)N1CCC(Cc2ccccc2)CC1)CCS3", "activity change, negative = toxicity": "-12% (inactive)"}
{"compound": "O=C(c1cccc(Cl)c1)N1CCN(c2ccccn2)CC1", "activity change, negative = toxicity": "-24.6% (inactive)"}
{"compound": "Cc1nn(S(C)(=O)=O)c2ccccc12", "activity change, negative = toxicity": "-23.9% (inactive)"}
{"compound": "COC(=O)Cn1nc(-c2ccc(Cl)cc2)c2ccccc21", "activity change, negative = toxicity": "-11% (inactive)"}
{"compound": "O=C(c1ccc(Cl)cc1)N1CCN(c2ccc(C(F)(F)F)cn2)CC1", "activity change, negative = toxicity": "-6.38% (inactive)"}
{"compound": "O=C(Cn1c2ccccc2c2ccncc21)N1CCCCC1", "activity change, negative = toxicity": "-31.2% (inactive)"}
{"compound": "O=C(O)c1c2ccccc2nn1Cc1ccc(Cl)cc1", "activity change, negative = toxicity": "-7.54% (inactive)"}
{"compound": "O=C(Cn1c2ccc(F)cc2c2nc3n(c(=O)c21)CCS3)N1CCCCCC1", "activity change, negative = toxicity": "-19.1% (inactive)"}
{"compound": "COC(=O)Cn1c(-c2ccccc2)nc2ccccc21", "activity change, negative = toxicity": "-4.41% (inactive)"}
{"compound": "N#Cc1ccc(N2CCN(C(=O)c3ccc(Cl)cc3)CC2)nc1", "activity change, negative = toxicity": "-15.6% (inactive)"}
{"compound": "c1ccc(-c2n[nH]c3ccccc23)cc1", "activity change, negative = toxicity": "-5.62% (inactive)"}
{"compound": "O=C(c1ccc(Cl)cc1)N1CCN(c2ncccc2C(F)(F)F)CC1", "activity change, negative = toxicity": "-21.5% (inactive)"}
{"compound": "CCCNC(=O)Cn1nc(-c2ccccc2)c2cc(Cl)ccc21", "activity change, negative = toxicity": "-7.48% (inactive)"}
{"compound": "CC1CCN(C(=O)Cn2c3ccccc3c3nc4n(c(=O)c32)CCS4)CC1", "activity change, negative = toxicity": "-20.3% (inactive)"}
{"compound": "CC1CCN(C(=O)Cn2c3ccc(F)cc3c3nc4n(c(=O)c32)CCCS4)CC1", "activity change, negative = toxicity": "-15.8% (inactive)"}
{"compound": "CC1CCN(C(=O)Cn2c3ccccc3c3nc4n(c(=O)c32)CCCS4)CC1", "activity change, negative = toxicity": "-25.8% (inactive)"}
{"compound": "N#Cc1cccnc1N1CCN(C(=O)c2ccc(Cl)cc2)CC1", "activity change, negative = toxicity": "6.33% (inactive)"}
{"compound": "CCCCC(=O)N1CCN(c2ccccn2)CC1", "activity change, negative = toxicity": "-7.03% (inactive)"}
{"compound": "CCN(CC)C(=O)Cn1c2ccccc2c2nc3n(c(=O)c21)CCS3", "activity change, negative = toxicity": "-27% (inactive)"}
{"compound": "O=C(C1CCCCC1)N1CCN(c2ccccn2)CC1", "activity change, negative = toxicity": "-19.3% (inactive)"}
{"compound": "O=C(Cn1nc(C(=O)N2CCCCC2)c2ccccc21)N1CCOCC1", "activity change, negative = toxicity": "-2.32% (inactive)"}
{"compound": "COC(=O)Cn1nc(-c2ccccc2)c2cc(Cl)ccc21", "activity change, negative = toxicity": "-7.62% (inactive)"}
{"compound": "O=C(Cn1c2ccccc2c2nc3n(c(=O)c21)CCS3)NCCc1ccc(Cl)cc1", "activity change, negative = toxicity": "-7.62% (inactive)"}
{"compound": "O=C(O)c1nn(Cc2ccc(Cl)cc2)c2ccccc12", "activity change, negative = toxicity": "-9.65% (inactive)"}
{"compound": "Cc1cccc(N2CCN(C(=O)c3ccc(Cl)cc3)CC2)n1", "activity change, negative = toxicity": "-19.6% (inactive)"}
{"compound": "N#Cc1ccc(C(=O)N2CCN(c3ccccn3)CC2)cc1", "activity change, negative = toxicity": "4.67% (inactive)"}
{"compound": "O=C(Cn1nc(-c2ccccc2)c2ccccc21)N1CCc2ccccc2C1", "activity change, negative = toxicity": "-10.2% (inactive)"}
{"compound": "O=C(Cn1c2ccc(F)cc2c2nc3n(c(=O)c21)CCS3)N1CCCC1", "activity change, negative = toxicity": "-34% (inactive)"}
{"compound": "O=C(c1ccc(Cl)cc1)N1CCN(c2nc3ccccc3s2)CC1", "activity change, negative = toxicity": "-24% (inactive)"}
{"compound": "O=C(c1ccccc1Cl)N1CCN(c2ccccn2)CC1", "activity change, negative = toxicity": "-7.93% (inactive)"}
{"compound": "COC(=O)Cn1nc(-c2ccccc2)c2ccccc21", "activity change, negative = toxicity": "-16.9% (inactive)"}
{"compound": "Cc1ccnc(N2CCN(C(=O)c3ccc(Cl)cc3)CC2)c1", "activity change, negative = toxicity": "-11.8% (inactive)"}
{"compound": "O=c1c2[nH]c3ccc(F)cc3c2nc2n1CCS2", "activity change, negative = toxicity": "7.11% (inactive)"}
{"compound": "O=c1c2[nH]c3ccccc3c2nc2n1CCS2", "activity change, negative = toxicity": "-21.3% (inactive)"}
{"compound": "COc1cccnc1N1CCN(C(=O)c2ccc(Cl)cc2)CC1", "activity change, negative = toxicity": "-12.3% (inactive)"}
{"compound": "COCCC(=O)N1CCN(c2ccccn2)CC1", "activity change, negative = toxicity": "-16% (inactive)"}
{"compound": "COC(=O)Cn1nc(-c2ccc(C)cc2)c2ccccc21", "activity change, negative = toxicity": "0.677% (inactive)"}
{"compound": "CCCNC(=O)Cn1nc(-c2ccccc2)c2ccccc21", "activity change, negative = toxicity": "-5.82% (inactive)"}
{"compound": "O=C(Cn1c2ccccc2c2nc3n(c(=O)c21)CCCS3)c1ccc(F)cc1", "activity change, negative = toxicity": "-8.47% (inactive)"}
{"compound": "CNC(=O)Cn1nc(-c2ccccc2)c2ccccc21", "activity change, negative = toxicity": "-11.1% (inactive)"}
